According to paper PMC11571207, “Stereorandomized Oncocins with Preserved Ribosome Binding and Antibacterial Activity” (Journal of Medicinal Chemistry, 2024):
Read-outs that look alike come from different tables or passages of the source. No end group written: not given here.

How the values were obtained:
human red blood cells = test: Hemolysis assay, minimum hemolytic concentration
[1] = system: P. aeruginosa PA14 4.13 (phoQ); conditions: for MIC P. aeruginosa PA14 4.13: supplement CSV
[2] = system: P. aeruginosa PA14 4.18 (pmrB); conditions: for MIC P. aeruginosa PA14 4.18: supplement CSV
P. aeruginosa ZEM-1A = test: microbe, parasite or virus in culture
Outline: (§1)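 Minimal inhibitory concentrations come from broth microdilution in MH medium, with a top peptide concentration of 64 μg/mL halved serially.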

P. aeruginosa ZEM9A = test: microbe, parasite or virus in culture; conditions: for MIC P. aeruginosa ZEM9A: supplement CSV
Outline: as §1

P. aeruginosa PA14 = test: microbe, parasite or virus in culture; conditions: for MIC P. aeruginosa PA14: supplement CSV
Outline: as §1

[3] = system: P. aeruginosa PA14 2P4 (pmrB); test: microbe, parasite or virus in culture; conditions: for MIC P. aeruginosa PA14 2P4: supplement CSV
Outline: as §1

K. pneumoniae OXA-48 = test: microbe, parasite or virus in culture; conditions: for MIC K. pneumoniae OXA-48: supplement CSV
Outline: as §1

E. cloacae = test: microbe, parasite or virus in culture; conditions: for MIC E. cloacae: supplement CSV
Outline: as §1

P. aeruginosa PAO1 = test: microbe, parasite or virus in culture; conditions: for MIC P. aeruginosa PAO1: supplement CSV
Outline: (§2)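 Read-out was visible growth after MTT addition, the MIC being the lowest inhibitory peptide concentration. Bacteria grown to log phase in LB were exposed in MH medium to peptide from 64 μg/mL in twofold dilutions for 15-18h at 37°C.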

E. coli W3110 = test: microbe, parasite or virus in culture; conditions: for MIC E. coli W3110: supplement CSV
Outline: as §2

S. aureus COL (MRSA) = test: microbe, parasite or virus in culture; conditions: for MIC S. aureus COL (MRSA): supplement CSV
Outline: as §2

A. baumannii ATCC19606 = test: microbe, parasite or virus in culture; conditions: for MIC A. baumannii ATCC19606: supplement CSV
Outline: as §2

K. pneumoniae NCTC 418 = test: microbe, parasite or virus in culture; conditions: for MIC K. pneumoniae NCTC418: supplement CSV
Outline: as §2

[4] = polymyxin B resistant strain, 12.5% MHB pH 7.4, 16–20 h at 37 °C
[5] = polymyxin B resistant strain, full MHB pH 7.4, 16–20 h at 37 °C

## VDKPPYLPRPRPPRRIYNR [sr9Cterm-Onc] (VDKPPYLPRPRPPRRIYNR-NH2; also: residues 11-19 stereorandomized (1:1 L/D mixture))
Human red blood cells; 2.5% human red blood cells (final) in 10 mM phosphate, 150 mM NaCl, pH 7.4, 25 °C, 4 h, visual inspection
  Haemolysis on hRBC, MHC: >1000 µg/mL
Human red blood cells; supplement CSV
  MHC human red blood cells: >1000 µg/mL
[1]; [4]
  MIC P. aeruginosa PA14 4.13 (phoQ), 12.5% MHB: 8 µg/mL
[1]; [5]
  MIC P. aeruginosa PA14 4.13 (phoQ), full MHB: 64 µg/mL
[1]; 12.5% MH pH 7.4
  MIC P. aeruginosa PA14 4.13: 8 µg/mL
[1]; full MH pH 7.4
  MIC P. aeruginosa PA14 4.13: 64 µg/mL
[2]; [4]
  MIC P. aeruginosa PA14 4.18 (pmrB), 12.5% MHB: 8 µg/mL
[2]; [5]
  MIC P. aeruginosa PA14 4.18 (pmrB), full MHB: 64 µg/mL
[2]; 12.5% MH pH 7.4
  MIC P. aeruginosa PA14 4.18: 8 µg/mL
[2]; full MH pH 7.4
  MIC P. aeruginosa PA14 4.18: 64 µg/mL
P. aeruginosa ZEM-1A; clinical isolate, 12.5% MHB pH 7.4, 16–20 h at 37 °C, cells marked c: single measurement (in duplicates)
  MIC P. aeruginosa ZEM-1A, 12.5% MHB: 4 to 8 µg/mL
P. aeruginosa ZEM-1A; clinical isolate, full MHB pH 7.4, 16–20 h at 37 °C, cells marked c: single measurement (in duplicates)
  MIC P. aeruginosa ZEM-1A, full MHB: 64 µg/mL
P. aeruginosa ZEM-1A; supplement CSV, 12.5% MH pH 7.4
  MIC P. aeruginosa ZEM-1A: 4 to 8 µg/mL
P. aeruginosa ZEM9A; clinical isolate, 12.5% MHB pH 7.4, 16–20 h at 37 °C
  MIC P. aeruginosa ZEM9A, 12.5% MHB: 8 µg/mL
P. aeruginosa ZEM9A; clinical isolate, full MHB pH 7.4, 16–20 h at 37 °C
  MIC P. aeruginosa ZEM9A, full MHB: > 64 µg/mL
P. aeruginosa ZEM9A; 12.5% MH pH 7.4
  MIC P. aeruginosa ZEM9A: 8 µg/mL
P. aeruginosa ZEM9A; full MH pH 7.4
  MIC P. aeruginosa ZEM9A: >64 µg/mL
P. aeruginosa PA14; 12.5% MHB pH 7.4, 16–20 h at 37 °C, two different duplicate MIC determinations
  MIC P. aeruginosa PA14, 12.5% MHB: 8 µg/mL
P. aeruginosa PA14; full MHB pH 7.4, 16–20 h at 37 °C, two different duplicate MIC determinations
  MIC P. aeruginosa PA14, full MHB: > 64 µg/mL
P. aeruginosa PA14; 12.5% MH pH 7.4
  MIC P. aeruginosa PA14: 8 µg/mL
P. aeruginosa PA14; full MH pH 7.4
  MIC P. aeruginosa PA14: >64 µg/mL
[3]; [4]
  MIC P. aeruginosa PA14 2P4 (pmrB), 12.5% MHB: 4 µg/mL
[3]; [5]
  MIC P. aeruginosa PA14 2P4 (pmrB), full MHB: > 64 µg/mL
[3]; 12.5% MH pH 7.4
  MIC P. aeruginosa PA14 2P4: 4 µg/mL
[3]; full MH pH 7.4
  MIC P. aeruginosa PA14 2P4: >64 µg/mL
K. pneumoniae OXA-48; carbapenem-resistant, 12.5% MHB pH 7.4, 16–20 h at 37 °C
  MIC K. pneumoniae OXA-48, 12.5% MHB: 4 µg/mL
K. pneumoniae OXA-48; carbapenem-resistant, full MHB pH 7.4, 16–20 h at 37 °C
  MIC K. pneumoniae OXA-48, full MHB: 32 µg/mL
K. pneumoniae OXA-48; 12.5% MH pH 7.4
  MIC K. pneumoniae OXA-48: 4 µg/mL
K. pneumoniae OXA-48; full MH pH 7.4
  MIC K. pneumoniae OXA-48: 32 µg/mL
E. cloacae; 12.5% MHB pH 7.4, 16–20 h at 37 °C
  MIC E. cloacae, 12.5% MHB: 1 µg/mL
E. cloacae; full MHB pH 7.4, 16–20 h at 37 °C
  MIC E. cloacae, full MHB: 32 µg/mL
E. cloacae; 12.5% MH pH 7.4
  MIC E. cloacae: 1 µg/mL
E. cloacae; full MH pH 7.4
  MIC E. cloacae: 32 µg/mL
P. aeruginosa PAO1; P. aeruginosa PAO1, 12.5% Müller–Hinton medium, 16–20 h at 37 °C
  MIC P. aeruginosa, 12.5% MHB: 8 µg/mL
P. aeruginosa PAO1; P. aeruginosa PAO1, full Müller–Hinton medium, 16–20 h at 37 °C
  MIC P. aeruginosa, Full MHB: 64 µg/mL
P. aeruginosa PAO1; 12.5% MH pH 7.4
  MIC P. aeruginosa PAO1: 8 µg/mL
P. aeruginosa PAO1; full MH pH 7.4
  MIC P. aeruginosa PAO1: 64 µg/mL
E. coli W3110; E. coli W3110, 12.5% Müller–Hinton medium, 16–20 h at 37 °C, broth microdilution
  MIC E. coli, 12.5% MHB: 4 µg/mL
E. coli W3110; E. coli W3110, full Müller–Hinton medium, 16–20 h at 37 °C, broth microdilution
  MIC E. coli, Full MHB: 8 µg/mL
E. coli W3110; 12.5% MH pH 7.4
  MIC E. coli W3110: 4 µg/mL
E. coli W3110; full MH pH 7.4
  MIC E. coli W3110: 8 µg/mL
S. aureus COL (MRSA); S. aureus COL (MRSA), 12.5% Müller–Hinton medium, 16–20 h at 37 °C
  MIC S. aureus, 12.5% MHB: 32 µg/mL
S. aureus COL (MRSA); S. aureus COL (MRSA), full Müller–Hinton medium, 16–20 h at 37 °C
  MIC S. aureus, Full MHB: > 64 µg/mL
S. aureus COL (MRSA); 12.5% MH pH 7.4
  MIC S. aureus COL (MRSA): 32 µg/mL
S. aureus COL (MRSA); full MH pH 7.4
  MIC S. aureus COL (MRSA): >64 µg/mL
A. baumannii ATCC19606; A. baumannii ATCC19606, 12.5% Müller–Hinton medium, 16–20 h at 37 °C
  MIC A. baumannii, 12.5% MHB: 4 µg/mL
A. baumannii ATCC19606; A. baumannii ATCC19606, full Müller–Hinton medium, 16–20 h at 37 °C
  MIC A. baumannii, Full MHB: 32 µg/mL
A. baumannii ATCC19606; 12.5% MH pH 7.4
  MIC A. baumannii ATCC19606: 4 µg/mL
A. baumannii ATCC19606; full MH pH 7.4
  MIC A. baumannii ATCC19606: 32 µg/mL
K. pneumoniae NCTC 418; K. pneumoniae NCTC 418, 12.5% Müller–Hinton medium, 16–20 h at 37 °C
  MIC K. pneumoniae, 12.5% MHB: 4 / 4 μg/mL
K. pneumoniae NCTC 418; K. pneumoniae NCTC 418, full Müller–Hinton medium, 16–20 h at 37 °C
  MIC K. pneumoniae, Full MHB: 4 / 4 μg/mL
K. pneumoniae NCTC 418; 12.5% MH pH 7.4
  MIC K. pneumoniae NCTC418: 4 µg/mL
K. pneumoniae NCTC 418; full MH pH 7.4
  MIC K. pneumoniae NCTC418: 4 µg/mL
